In ChEMBL document CHEMBL3639215, “Piperazine compound having a PGDS inhibitory effect” (2014):

Molecular target: Hematopoietic prostaglandin D synthase (Homo sapiens, UniProt O60760)
Test: Inhibiting Action: The test was carried out according to the method of Urade, Y. et al. (J. Biol. Chem., 262, 3820-3825, (1987)). More specifically, the reaction mixture (49 μL) containing 100 mM Tris-HCl (pH 8.0), 1 mM reduced glutathione, 0.1 mg/mL γ-globulin, and human H-PGDS (q.s.), and a compound (final concentration: 0.01-100 μM) was preincubated at 25C. for 5 minutes. A DMSO solution (final concentration: 1%) was added to the solvent control group. Subsequently, 1 μL of [14C] prostaglandin H2 (final concentration: 10 μM) was added to start the reaction. One minute after the start of the reaction, 250 μL of a reaction stop solution (diethylether/methanol/1 M citric acid (30/4/1) at a temperature of −20C. was added to stop the reaction. After the reaction was stopped, 50 μL of the upper-layer portion (organic solvent layer) was applied to a TLC plate and developed at −20C. for 45 minutes (developing solvent: diethylether/methanol/acetic acid (90/2/1)).

Sequence of Hematopoietic prostaglandin D synthase (O60760 whole entry): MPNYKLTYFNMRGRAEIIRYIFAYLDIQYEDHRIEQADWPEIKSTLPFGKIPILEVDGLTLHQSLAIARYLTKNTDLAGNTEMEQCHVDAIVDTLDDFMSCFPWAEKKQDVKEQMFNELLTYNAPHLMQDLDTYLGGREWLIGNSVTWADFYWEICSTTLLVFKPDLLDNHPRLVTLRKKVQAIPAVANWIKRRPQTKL

| SMILES | IC50 [nM] |
| --- | --- |
| O=C(NCCN1CCOCC1)c1ccc(N2CCC(NC(=O)N3CCN(C(=O)c4ccoc4)CC3)CC2)cc1 | > 1000 |
| O=C(Nc1nc2ccc(Cl)cc2s1)N1CCN(C(=O)c2cccc(F)c2)CC1 | 204 |
| O=C(NCCN1CCOCC1)c1ccc(N2CCC(NC(=O)N3CCN(C(=O)c4ccco4)CC3)CC2)cc1 | 445 |
| O=C(NCCN1CCOCC1)c1ccc(N2CCC(NC(=O)N3CCN(C(=O)C4CCCC4)CC3)CC2)cc1 | > 1000 |
| O=C(Nc1nc2ccc(Br)cc2s1)N1CCN(C(=O)c2cccc(F)c2)CC1 | 106 |
| Cc1ccc2nc(NC(=O)N3CCN(C(=O)c4cccc(F)c4)CC3)sc2c1 | 260 |
| Cc1cc2nc(NC(=O)N3CCN(C(=O)c4cccc(F)c4)CC3)sc2cc1C | 222 |
| Cn1ccnc1C(=O)N1CCN(C(=O)NC2CCN(c3ccc(C(=O)NCCN4CCOCC4)cc3)CC2)CC1 | > 1000 |
| COc1ccc2nc(NC(=O)N3CCN(C(=O)c4cccc(F)c4)CC3)sc2c1 | 318 |

Second part, the molecule after the results:

| IC50 [nM] | SMILES |
| --- | --- |
| > 1000 | O=C(NCCN1CCOCC1)c1ccc(N2CCC(NC(=O)N3CCN(C(=O)c4ccno4)CC3)CC2)cc1 |
| 249 | O=C(NCCN1CCOCC1)c1ccc(N2CCC(NC(=O)N3CCN(C(=O)c4ccccc4)CC3)CC2)cc1 |
| > 1000 | Cc1cc(C)c(C(=O)N2CCN(C(=O)NC3CCN(c4ccc(C(=O)NCCN5CCOCC5)cc4)CC3)CC2)[nH]1 |
| > 1000 | Cn1ccc(C(=O)N2CCN(C(=O)NC3CCN(c4ccc(C(=O)NCCN5CCOCC5)cc4)CC3)CC2)c1 |
| 201 | O=C(NCCN1CCOCC1)c1ccc(N2CCC(NC(=O)N3CCN(C(=O)c4cccs4)CC3)CC2)cc1 |
| 334 | O=C(NCCN1CCOCC1)c1ccc(N2CCC(NC(=O)N3CCN(C(=O)c4ccc[nH]4)CC3)CC2)cc1 |
| 327 | O=C(NCCN1CCOCC1)c1ccc(N2CCC(NC(=O)N3CCN(C(=O)c4ccsc4)CC3)CC2)cc1 |
